From ChEMBL document CHEMBL1128878, “Simple compounds, 2-alkyl-2-amino-1,3-propanediols have potent immunosuppressive activity” (Bioorg Med Chem Lett, 1995)

Assays:
Mus musculus = species on record: Mus musculus; assay: Inhibition of mouse allogenic mixed leukocyte response (MLR); format: functional
Rattus norvegicus [1] = assay: Compound was evaluated in vivo for the immunosuppressive activity on rat skin allograft at ip dose of 1 mg/Kg; format: functional
Rattus norvegicus [2] = assay: Compound was evaluated in vivo for the immunosuppressive activity on rat skin allograft at ip dose of 3 mg/Kg; format: functional
Rattus norvegicus [3] = assay: Compound was evaluated in vivo for the immunosuppressive activity on rat skin allograft at ip dose of 30 mg/Kg; format: functional
Rattus norvegicus [4] = assay: Compound was evaluated in vivo for the immunosuppressive activity on rat skin allograft at ip dose of 10 mg/Kg; format: functional
Rattus norvegicus [5] = assay: Compound was evaluated in vivo for the immunosuppressive activity on rat skin allograft at ip dose of 0.03 mg/Kg; format: functional
Rattus norvegicus [6] = assay: Compound was evaluated in vivo for the immunosuppressive activity on rat skin allograft at ip dose of 0.1 mg/Kg; format: functional
Rattus norvegicus [7] = assay: Compound was evaluated in vivo for the immunosuppressive activity on rat skin allograft at ip dose of 0.3 mg/Kg; format: functional
Rattus norvegicus [8] = assay: Compound was evaluated in vivo for the immunosuppressive activity on rat skin allograft at ip dose of 10 mg/Kg; toxic (animals died); format: ADME, organism-based
Rattus norvegicus [9] = assay: Compound was evaluated in vivo for the immunosuppressive activity on rat skin allograft at ip dose of 1 mg/Kg; toxic (animals died); format: functional, organism-based

IC50 (Mus musculus)	Structure (SMILES)	further results
440 nM	CCCCCCCCCCC(N)(CO)CO	
	C/C=C/C[C@@H](C)[C@@H](O)[C@H]1C(=O)N[C@@H](CC)C(=O)N(C)CC(=O)N(C)[C@@H](CC(C)C)C(=O)N[C@@H](C(C)C)C(=O)N(C)[C@@H](CC(C)C)C(=O)N[C@@H](C)C(=O)N[C@H](C)C(=O)N(C)[C@@H](CC(C)C)C(=O)N(C)[C@@H](CC(C)C)C(=O)N(C)[C@@H](C(C)C)C(=O)N1C [CYCLOSPORINE]	MST (Rattus norvegicus [1]): 7.3 days; MST (Rattus norvegicus [2]): 10.8 days; MST (Rattus norvegicus [3]): 19.2 days; MST (Rattus norvegicus [4]): 15.2 days
1630 nM	CCCCCCC(O)CCCCCCCCC[C@@H](O)[C@H](O)C(N)(CO)CO (some centres undefined)	
3700 nM	CCCCCCCCC(N)(CO)CO	
270 nM	CCCCCCCCCCCCC(N)(CO)CO	
1600 nM	CCCCCCCCCCCCCCCCCCCCCCC(N)(CO)CO	
10 nM	CCCCCCCCCCCCCCCCC(N)(CO)CO	
12 nM	CCCCCCCCCCCCCC(N)(CO)CO	
130 nM	CCCCCCCCCCCCCCCCCCC(N)C(=O)O (centres undefined)	
4.7 nM	CCCCCCC(O)CCCCCC/C=C/C[C@@H](O)[C@H](O)C(N)(CO)CO (some centres undefined)	
56 nM	CCCCCCCCCCCCC/C=C/C[C@@H](O)[C@H](O)C(N)(CO)CO	
5.9 nM	CCCCCCCCCCCCCCC(N)(CO)CO	
320 nM	CCCCCCCCCCCCCCCC[C@@H](O)[C@H](O)C(N)(CO)CO	
190 nM	CCCCCCCCCCCCCCCCCCCCC(N)(CO)CO	

Structure (SMILES)	IC50 (Mus musculus)	further results
CCCCCCCCCCCCCCCC(N)(CO)CO	2.9 nM	MST (Rattus norvegicus [5]): 10.8 days; MST (Rattus norvegicus [6]): 14 days; MST (Rattus norvegicus [7]): 33.5 days; MST (Rattus norvegicus [1]): 45.3 days; MST (Rattus norvegicus [8]): Toxic (animals died); MST (Rattus norvegicus [2]): 57.8 days
CCCCCCC(=O)CCCCCC/C=C/C[C@@H](O)[C@H](O)[C@@](N)(CO)C(=O)O [MYRIOCIN]	3 nM	MST (Rattus norvegicus [5]): 7.8 days; MST (Rattus norvegicus [6]): 9.2 days; MST (Rattus norvegicus [7]): 11.2 days; MST (Rattus norvegicus [9]): Toxic (animals died)
